Experimental data published in PMC10795032 (ACS Omega, 2024).

Assays:
Assay type in all cases: cell-based, human
pAKT = test: Western blot, phosphorylation of AKT; details: U87-MG, 5 μM, 24 h
U87-MG cells [1] = test: Annexin V-FITC/PI flow cytometry apoptosis assay; details: 5 μM, 24 h
p62/SQSTM1 = test: Western blot, autophagic flux marker p62/SQSTM1; details: U87-MG, 5 μM, 24 h
U87-MG cells [2] = details: 5 μM with 20 μM CQ, 24 h, CCK-8
cleaved caspase-3 = test: Western blot, cleaved caspase-3; details: U87-MG, 5 μM, 24 h
p-mTOR = test: Western blot, phosphorylation of mTOR; details: U87-MG, 5 μM, 24 h
LC3 = test: Western blot, LC3-I to LC3-II conversion; details: U87-MG, 24 h

## COc1cc2ncnc(Nc3ccc(F)c(Cl)c3)c2cc1OCCCN1CCOCC1 [Gefitinib]
pAKT
  phosphorylation of AKT: potent in inhibiting
U87-MG cells [1]
  apoptosis rate (Annexin-V-positive cells): 44.16%
p62/SQSTM1
  expression of p62: partially downregulate
U87-MG cells [2]
  increase in cell death along with CQ compared with treated alone: 2.09%
Cleaved caspase-3
  cleaved caspase-3 expression: cleaved caspase-3 expression can be seen
p-mTOR
  phosphorylation of mTOR: potent in inhibiting
LC3; 5 μM with 20 μM CQ
  conversion of LC3-II on co-incubation with CQ: significantly increases
LC3; 5 μM
  conversion of LC3-I to LC3-II: able to induce autophagy
